pEC50: −log10 of the molar value.
What follows are compounds tested against T1, human FSH receptor (Homo sapiens, UniProt P23945) (assay: CHO-FSH in vitro bioactivity (CRE-luciferase reporter, agonistic or antagonistic set-up)). Settings: CHO cells stably transfected with human FSH receptor and CRE/luciferase reporter; in either an agonistic or an antagonistic (rec-hFSH 10 mU/ml) assay set-up or both / in at least one of the assays; read-out: EC50 (IC50).
T1 construct: expressed in transfected cells; host or cells: Chinese Hamster Ovary (CHO) cells, stably transfected, cotransfected with a CRE-luciferase reporter
T1 sequence (P23945 18-695): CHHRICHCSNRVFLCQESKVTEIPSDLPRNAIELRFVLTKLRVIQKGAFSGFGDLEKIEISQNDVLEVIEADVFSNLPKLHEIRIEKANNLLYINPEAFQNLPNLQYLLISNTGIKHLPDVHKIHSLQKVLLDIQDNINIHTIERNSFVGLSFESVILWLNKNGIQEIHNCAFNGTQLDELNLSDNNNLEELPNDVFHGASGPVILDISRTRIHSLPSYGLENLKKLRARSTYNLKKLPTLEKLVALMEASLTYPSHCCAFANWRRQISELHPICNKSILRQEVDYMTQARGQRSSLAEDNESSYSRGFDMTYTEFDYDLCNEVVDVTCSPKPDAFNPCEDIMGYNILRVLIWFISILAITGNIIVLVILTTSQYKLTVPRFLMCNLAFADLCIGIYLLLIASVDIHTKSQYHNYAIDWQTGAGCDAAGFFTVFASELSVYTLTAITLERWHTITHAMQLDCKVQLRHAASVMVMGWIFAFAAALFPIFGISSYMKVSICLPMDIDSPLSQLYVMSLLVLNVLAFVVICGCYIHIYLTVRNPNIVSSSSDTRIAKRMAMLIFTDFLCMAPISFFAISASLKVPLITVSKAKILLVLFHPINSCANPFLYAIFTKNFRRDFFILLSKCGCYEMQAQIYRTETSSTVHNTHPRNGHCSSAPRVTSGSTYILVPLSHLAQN
Format: cell-based
Protocol: FSH activity of compounds were tested in Chinese Hamster Ovary (CHO) cells stably transfected with the human FSH receptor and cotransfected with a cAMP responsive element (CRE)/promotor directing the expression of a firefly luciferase reporter gene. Binding of ligand to the Gs-coupled FSH receptor will result in an increase of cAMP, which in turn will induce an increased transactivation of the luciferase reporter construct. To test antagonistic properties recombinant FSH in a concentration that induces approximately 80% of the maximal stimulation of cAMP accumulation in the absence of test compound was added (rec-hFSH; 10 mU/ml). The luciferase signal was quantified using a luminescence counter. For test compounds, EC50 values (concentration of test compound causing half-maximal (50%) stimulation or reduction) were calculated. For that purpose the software program GraphPad PRISM, version 3.0 (GraphPad software Inc., San Diego) was used.

Compound | pEC50
CC(=O)N1c2ccc(NC(=O)c3ccc(N(C)C)cc3)cc2C(C)(c2ccc(OCCN3CCOCC3)cc2)CC1(C)C (stereo not drawn) [Example 41, N-{1-Acetyl-2,2,4-trimethyl-4-[4-(2-morpholin-4-yl-ethoxy)-phenyl]-1,2,3,4-tetrahydro-quinolin-6-yl}-4-dimethylamino-benzamide] | > 7.00
CC(=O)N1c2ccc(NC(=O)c3ccc(Br)cc3)cc2C(C)(c2ccc(OCCN3CCOCC3)cc2)CC1(C)C (stereo not drawn) [Example 39, N-{1-Acetyl-2,2,4-trimethyl-4-[4-(2-morpholin-4-yl-ethoxy)-phenyl]-1,2,3,4-tetrahydro-quinolin-6-yl}-4-bromo-benzamide] | > 7.00
CC(=O)N1c2ccc(NC(=O)c3ccc(-c4ccccc4)cc3)cc2C(C)(c2ccc(OCC(=O)NCc3ccco3)cc2)CC1(C)C (stereo not drawn) [Example 16] | > 7.00
CC(=O)N1c2ccc(NC(=O)c3cccc(C(F)(F)F)c3)cc2C(C)(c2ccc(OCCN3CCOCC3)cc2)CC1(C)C (stereo not drawn) [Example 42, N-{1-Acetyl-2,2,4-trimethyl-4-[4-(2-morpholin-4-yl-ethoxy)-phenyl]-1,2,3,4-tetrahydro-quinolin-6-yl}-3-trifluoromethyl-benzamide] | > 7.00

Results, then the compound that gave them:

pEC50 | Compound
> 7.00 | CC(=O)N1c2ccc(NC(=O)c3ccc(C(C)(C)C)cc3)cc2C(C)(c2ccc(OCCN3CCOCC3)cc2)CC1(C)C (stereo not drawn) [Example 37, N-{1-Acetal-2,2,4-trimethyl-4-[4-(2-morpholin-4-ethoxy)-phenyl]-1,2,3,4-tetrahydro-quinolin-6-yl}-4-tert-butyl-benzamide]
> 7.00 | CC(=O)N1c2ccc(NC(=O)c3ccccc3)cc2C(C)(c2ccc(OCCN3CCOCC3)cc2)CC1(C)C (stereo not drawn) [Example 36, N-{1-Acetyl-2,2,4-trimethyl-4-[4-(2-morpholin-4-yl-ethoxy)-phenyl]-1,2,3,4-tetrahydro-quinolin-6-yl}-benzamide]
> 7.00 | CC(=O)N1c2ccc(NC(=O)c3ccc(-c4ccccc4)cc3)cc2C(C)(c2ccc(OCc3ccncc3)cc2)CC1(C)C (stereo not drawn) [Example 7, Biphenyl-4-carboxylic acid {1-acetyl-2,2,4-trimethyl-4-[4-(pyridin-4-ylmethoxy)-phenyl]-1,2,3,4-tetrahydro-quinolin-6-yl}-amide]
> 7.00 | CC(=O)N1c2ccc(NC(=O)c3ccc(-c4ccccc4)cc3)cc2C(C)(c2ccc(OCc3ccccn3)cc2)CC1(C)C (stereo not drawn) [Example 4, Biphenyl-4-carboxylic acid {1-acetyl-2,2,4-trimethyl-4-[4-(pyridin-2-ylmethoxy)-phenyl]-1,2,3,4-tetrahydro-quinolin-6-yl}-amide]
> 7.00 | CC(=O)N1c2ccc(NC(=O)c3ccc(-c4ccccc4)cc3)cc2C(C)(c2ccc(OCCCN3CCOCC3)cc2)CC1(C)C (stereo not drawn) [Example 3, Biphenyl-4-carboxylic acid {1-acetyl-2,2,4-trimethyl-4-[4-(3-morpholin-4-yl-propoxy)-phenyl]-1,2,3,4-tetrahydro-quinolin-6-yl}-amide]

Reference: US7674909B2, “Tetrahydroquinoline derivatives and their use as FSH receptor modulators” (N.V. Organon, priority 2002, dated 2010)
